# Source: patent US12492188B2, “1H-benzo[D]imidazole derivatives as TLR9 inhibitors for the treatment of fibrosis” (BRISTOL-MYERS SQUIBB COMPANY, priority 2020, dated 2025)
# Like-named read-outs stand apart in the source and are kept apart here.
# Experiments:
# Assay type in all cases: cell-based
# human TLR8 = target: T1, human TLR8 (Homo sapiens, UniProt Q9NR97); assay: TLR8 inhibition reporter assay (HEK-Blue cells, secreted embryonic alkaline phosphatase reporter); settings: HEK-Blue cells overexpressing human TLR8, stimulated with R848 15.9 μM; read-out: TLR 8 IC50
# T1 construct: host or cells: HEK-Blue cells (HEK293-derived reporter line)
# T1 sequence (Q9NR97 27-1041): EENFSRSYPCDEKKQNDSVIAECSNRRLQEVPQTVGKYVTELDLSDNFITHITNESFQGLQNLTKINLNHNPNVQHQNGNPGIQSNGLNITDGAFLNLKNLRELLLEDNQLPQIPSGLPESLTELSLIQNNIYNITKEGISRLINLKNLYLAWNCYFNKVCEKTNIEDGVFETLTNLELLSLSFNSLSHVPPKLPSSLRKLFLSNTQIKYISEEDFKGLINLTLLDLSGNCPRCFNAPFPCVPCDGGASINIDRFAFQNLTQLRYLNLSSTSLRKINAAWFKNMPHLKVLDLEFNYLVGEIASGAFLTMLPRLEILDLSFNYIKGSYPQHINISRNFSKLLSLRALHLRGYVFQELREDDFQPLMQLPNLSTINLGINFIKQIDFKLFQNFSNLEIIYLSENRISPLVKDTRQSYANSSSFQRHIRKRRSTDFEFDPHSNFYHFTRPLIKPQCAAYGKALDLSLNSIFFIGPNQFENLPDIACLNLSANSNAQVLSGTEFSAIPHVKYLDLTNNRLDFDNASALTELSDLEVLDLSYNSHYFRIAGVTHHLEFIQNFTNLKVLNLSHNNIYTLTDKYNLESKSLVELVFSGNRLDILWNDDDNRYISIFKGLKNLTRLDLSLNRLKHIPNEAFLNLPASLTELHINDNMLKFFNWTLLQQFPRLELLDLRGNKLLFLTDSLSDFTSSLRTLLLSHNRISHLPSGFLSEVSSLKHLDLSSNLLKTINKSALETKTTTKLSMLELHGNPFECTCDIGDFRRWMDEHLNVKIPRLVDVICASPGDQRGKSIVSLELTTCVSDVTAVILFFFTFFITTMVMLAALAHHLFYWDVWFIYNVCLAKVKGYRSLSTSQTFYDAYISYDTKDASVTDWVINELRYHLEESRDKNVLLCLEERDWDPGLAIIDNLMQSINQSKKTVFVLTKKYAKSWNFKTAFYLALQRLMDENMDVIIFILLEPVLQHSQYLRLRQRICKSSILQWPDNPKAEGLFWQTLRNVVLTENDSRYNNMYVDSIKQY
# Outline: (§1)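 Inhibitors are tested in dose response (0.05 nM–50 μM) on HEK-Blue reporter cells expressing human TLR7, TLR8 or TLR9. After 30 min at room temperature, each line is stimulated with its own agonist (gardiquimod 7.5 μM, R848 15.9 μM or ODN2006 5 nM, final) and SEAP is measured 22 h later.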
# human TLR9 = target: T2, human TLR9 (Homo sapiens, UniProt Q9NR96); assay: TLR9 inhibition reporter assay (HEK-Blue cells, secreted embryonic alkaline phosphatase reporter)
# T2 construct: host or cells: HEK-Blue cells (HEK293-derived reporter line)
# T2 sequence (Q9NR96 26-1032): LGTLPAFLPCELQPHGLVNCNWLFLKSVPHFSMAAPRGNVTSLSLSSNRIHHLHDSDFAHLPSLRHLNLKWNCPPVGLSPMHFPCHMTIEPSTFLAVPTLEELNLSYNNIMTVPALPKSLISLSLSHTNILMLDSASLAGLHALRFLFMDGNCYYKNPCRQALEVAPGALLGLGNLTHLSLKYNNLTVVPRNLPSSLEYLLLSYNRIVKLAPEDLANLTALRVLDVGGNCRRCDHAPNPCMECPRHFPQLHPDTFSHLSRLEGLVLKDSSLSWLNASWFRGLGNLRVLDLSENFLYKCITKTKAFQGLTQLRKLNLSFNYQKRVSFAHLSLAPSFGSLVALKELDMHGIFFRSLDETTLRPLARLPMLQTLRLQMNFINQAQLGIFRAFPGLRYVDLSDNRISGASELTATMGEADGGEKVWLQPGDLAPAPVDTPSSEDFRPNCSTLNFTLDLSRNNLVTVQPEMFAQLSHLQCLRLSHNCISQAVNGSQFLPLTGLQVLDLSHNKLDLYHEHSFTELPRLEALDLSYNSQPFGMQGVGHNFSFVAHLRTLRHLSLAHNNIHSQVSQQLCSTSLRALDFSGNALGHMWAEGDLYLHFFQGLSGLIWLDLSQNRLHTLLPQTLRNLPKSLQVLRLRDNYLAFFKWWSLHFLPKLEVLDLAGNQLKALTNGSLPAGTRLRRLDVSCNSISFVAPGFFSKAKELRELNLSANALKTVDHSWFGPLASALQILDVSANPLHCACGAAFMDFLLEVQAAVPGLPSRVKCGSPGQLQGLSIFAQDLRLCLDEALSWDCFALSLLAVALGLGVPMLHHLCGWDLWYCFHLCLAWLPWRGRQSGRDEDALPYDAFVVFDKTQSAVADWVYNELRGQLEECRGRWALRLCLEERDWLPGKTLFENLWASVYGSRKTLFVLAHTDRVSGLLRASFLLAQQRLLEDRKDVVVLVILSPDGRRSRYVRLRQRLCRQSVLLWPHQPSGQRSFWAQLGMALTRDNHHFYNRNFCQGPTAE
# Outline: as §1
# human TLR7 = target: T3, human TLR7 (Homo sapiens, UniProt Q9NYK1); assay: TLR7 inhibition reporter assay (HEK-Blue cells, secreted embryonic alkaline phosphatase reporter); settings: HEK-Blue cells overexpressing human TLR7, stimulated with gardiquimod 7.5 μM; read-out: TLR 7 IC50
# T3 construct: host or cells: HEK-Blue cells (HEK293-derived reporter line)
# T3 sequence (Q9NYK1 27-1049): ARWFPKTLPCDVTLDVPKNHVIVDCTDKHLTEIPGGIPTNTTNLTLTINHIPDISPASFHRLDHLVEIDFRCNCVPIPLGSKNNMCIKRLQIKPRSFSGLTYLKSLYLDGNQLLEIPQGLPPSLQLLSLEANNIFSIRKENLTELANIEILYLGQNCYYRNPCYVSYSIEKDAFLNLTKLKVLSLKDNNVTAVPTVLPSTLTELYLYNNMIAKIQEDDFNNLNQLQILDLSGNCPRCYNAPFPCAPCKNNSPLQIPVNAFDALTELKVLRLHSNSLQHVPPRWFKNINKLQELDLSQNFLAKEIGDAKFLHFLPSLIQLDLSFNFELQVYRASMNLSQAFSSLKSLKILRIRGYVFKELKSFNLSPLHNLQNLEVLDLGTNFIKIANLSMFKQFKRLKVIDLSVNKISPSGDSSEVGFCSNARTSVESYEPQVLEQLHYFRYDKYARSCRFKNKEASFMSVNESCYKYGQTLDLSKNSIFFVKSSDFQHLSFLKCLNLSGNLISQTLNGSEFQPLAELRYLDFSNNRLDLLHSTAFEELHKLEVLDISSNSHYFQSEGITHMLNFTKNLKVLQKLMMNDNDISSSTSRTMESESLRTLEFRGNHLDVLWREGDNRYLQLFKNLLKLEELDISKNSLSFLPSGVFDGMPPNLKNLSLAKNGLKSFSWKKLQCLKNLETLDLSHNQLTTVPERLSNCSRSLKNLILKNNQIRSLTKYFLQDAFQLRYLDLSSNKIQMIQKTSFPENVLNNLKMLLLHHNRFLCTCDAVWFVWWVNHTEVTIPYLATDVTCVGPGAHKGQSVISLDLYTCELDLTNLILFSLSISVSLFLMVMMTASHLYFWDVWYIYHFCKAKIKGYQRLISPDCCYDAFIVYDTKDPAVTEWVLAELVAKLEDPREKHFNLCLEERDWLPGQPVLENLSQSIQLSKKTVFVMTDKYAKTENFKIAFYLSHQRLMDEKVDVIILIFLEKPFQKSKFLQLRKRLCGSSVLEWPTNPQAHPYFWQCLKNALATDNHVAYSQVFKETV
# Outline: as §1
# [1] = HEK-Blue cells overexpressing human TLR9, stimulated with ODN2006 5 nM, read-out: TLR 9 IC50
# [2] = HEK-Blue human TLR9 reporter cells
IC50 (human TLR8),IC50 (human TLR9; [1]),IC50 (human TLR9; [2]),IC50 (human TLR7),Structure (SMILES)
> 50000 nM,16 nM,16 nM,4700 nM,"Cn1c(-c2ccc(S(C)(=O)=O)cc2)nc2c(F)cc(C3CCN(C4CC5CCC(C4)N5CC4CC4)CC3)cc21 (single isomer, unassigned) [Example 283, 6-(1-(8-(cyclopropylmethyl)-8-azabicyclo[3.2.1]octan-3-yl)piperidin-4-yl)-4-fluoro-1-methyl-2-(4-(methylsulfonyl)phenyl)-1H-benzo[d]imidazole]"
> 50000 nM,105 nM,110 nM,31700 nM,"Cn1c(-c2ccc(S(C)(=O)=O)cc2)nc2c(F)cc(C3CCN(C4CC5CCC(C4)N5C4CCOCC4)CC3)cc21 (single isomer, unassigned) [Example 288, 4-fluoro-1-methyl-2-(4-(methylsulfonyl)phenyl)-6-(1-(8-(tetrahydro-2H-pyran-4-yl)-8-azabicyclo[3.2.1]octan-3-yl)piperidin-4-yl)-1H-benzo[d]imidazole]"
> 50000 nM,29 nM,29 nM,3200 nM,"Cn1c(-c2ccc(S(C)(=O)=O)cc2)nc2c(F)cc(C3CCN(C4CC5CCC(C4)N5C4CCOCC4)CC3)cc21 (single isomer, unassigned) [Example 289, 4-fluoro-1-methyl-2-(4-(methylsulfonyl)phenyl)-6-(1-(8-(tetrahydro-2H-pyran-4-yl)-8-azabicyclo[3.2.1]octan-3-yl)piperidin-4-yl)-1H-benzo[d]imidazole]"
> 50000 nM,144 nM,150 nM,22200 nM,"COCCN1C2CCC1CC(N1CCC(c3cc(F)c4nc(-c5ccc(S(C)(=O)=O)cc5)n(C)c4c3)CC1)C2 (single isomer, unassigned) [Example 290, 4-fluoro-6-(1-(8-(2-methoxyethyl)-8-azabicyclo[3.2.1]octan-3-yl)piperidin-4-yl)-1-methyl-2-(4-(methylsulfonyl)phenyl)-1H-benzo[d]imidazole]"
34800 nM,57 nM,57 nM,1800 nM,"COCCN1C2CCC1CC(N1CCC(c3cc(F)c4nc(-c5ccc(S(C)(=O)=O)cc5)n(C)c4c3)CC1)C2 (single isomer, unassigned) [Example 291, 4-fluoro-6-(1-(8-(2-methoxyethyl)-8-azabicyclo[3.2.1]octan-3-yl)piperidin-4-yl)-1-methyl-2-(4-(methylsulfonyl)phenyl)-1H-benzo[d]imidazole]"
> 50000 nM,147 nM,150 nM,21700 nM,"Cn1c(-c2ccc(S(C)(=O)=O)cc2)nc2c(F)cc(C3CCN(C4CC5CCC(C4)N5C4CCC4)CC3)cc21 (single isomer, unassigned) [Example 292, 6-(1-(8-cyclobutyl-8-azabicyclo[3.2.1]octan-3-yl)piperidin-4-yl)-4-fluoro-1-methyl-2-(4-(methylsulfonyl)phenyl)-1H-benzo[d]imidazole]"
44200 nM,11 nM,11 nM,8200 nM,"Cn1c(-c2ccc(S(C)(=O)=O)cc2)nc2c(F)cc(C3CCN(C4CC5CCC(C4)N5C4CCC4)CC3)cc21 (single isomer, unassigned) [Example 293, 6-(1-(8-cyclobutyl-8-azabicyclo[3.2.1]octan-3-yl)piperidin-4-yl)-4-fluoro-1-methyl-2-(4-(methylsulfonyl)phenyl)-1H-benzo[d]imidazole]"
> 50000 nM,55 nM,55 nM,2300 nM,"CC(C)N1CCCC(N2CCC(c3cc(F)c4nc(-c5ccc(S(C)(=O)=O)cc5)n(C)c4c3)CC2)CC1 (single isomer, unassigned) [Example 294, 4-fluoro-6-(1-(1-isopropylazepan-4-yl)piperidin-4-yl)-1-methyl-2-(4-(methylsulfonyl)phenyl)-1H-benzo[d]imidazole]"
> 50000 nM,24 nM,24 nM,700 nM,"CC(C)N1CCCC(N2CCC(c3cc(F)c4nc(-c5ccc(S(C)(=O)=O)cc5)n(C)c4c3)CC2)CC1 (single isomer, unassigned) [Example 295, 4-fluoro-6-(1-(1-isopropylazepan-4-yl)piperidin-4-yl)-1-methyl-2-(4-(methylsulfonyl)phenyl)-1H-benzo[d]imidazole]"
> 50000 nM,58 nM,58 nM,3000 nM,"Cn1c(-c2ccc(S(C)(=O)=O)cc2)nc2c(F)cc(C3CCN(C4CCCN(CC5CC5)CC4)CC3)cc21 (single isomer, unassigned) [Example 298, 6-(1-(1-(cyclopropylmethyl)azepan-4-yl)piperidin-4-yl)-4-fluoro-1-methyl-2-(4-(methylsulfonyl)phenyl)-1H-benzo[d]imidazole]"
